Assays:
human 5-HT1D receptor = target: T1, human 5-HT1D receptor (Homo sapiens, UniProt P28221); test: R-SAT assay 5-HT1D; type: cell-based; details: Table 3, 5-HT1D; for Eff (%): percent response of reference 5-CT
T1 construct: expressed in transfected cells; host or cells: NIH/3T3

human 5-HT1E receptor = target: T2, human 5-HT1E receptor (Homo sapiens, UniProt P28566); test: R-SAT assay 5-HT1E; type: cell-based; details: Table 3, 5-HT1E; percent response of reference BRL 54443
T2 construct: expressed in transfected cells; host or cells: NIH/3T3
T2 sequence (P28566 whole entry): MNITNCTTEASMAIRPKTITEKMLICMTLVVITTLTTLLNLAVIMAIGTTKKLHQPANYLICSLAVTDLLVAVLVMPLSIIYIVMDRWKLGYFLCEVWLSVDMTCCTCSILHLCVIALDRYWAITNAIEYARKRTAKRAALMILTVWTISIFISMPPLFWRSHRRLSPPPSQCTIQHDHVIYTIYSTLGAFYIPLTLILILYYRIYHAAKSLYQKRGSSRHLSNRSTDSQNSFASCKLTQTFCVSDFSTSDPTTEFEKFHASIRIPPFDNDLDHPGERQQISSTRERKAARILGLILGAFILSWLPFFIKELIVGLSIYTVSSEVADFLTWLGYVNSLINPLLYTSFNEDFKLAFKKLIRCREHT

human 5-HT1F receptor = target: T3, human 5-HT1F receptor (Homo sapiens, UniProt P30939); test: R-SAT assay 5-HT1F; type: cell-based; details: Table 3, 5-HT1F; percent response of reference BRL 54443
T3 construct: expressed in transfected cells; host or cells: NIH/3T3
T3 sequence (P30939 1-366): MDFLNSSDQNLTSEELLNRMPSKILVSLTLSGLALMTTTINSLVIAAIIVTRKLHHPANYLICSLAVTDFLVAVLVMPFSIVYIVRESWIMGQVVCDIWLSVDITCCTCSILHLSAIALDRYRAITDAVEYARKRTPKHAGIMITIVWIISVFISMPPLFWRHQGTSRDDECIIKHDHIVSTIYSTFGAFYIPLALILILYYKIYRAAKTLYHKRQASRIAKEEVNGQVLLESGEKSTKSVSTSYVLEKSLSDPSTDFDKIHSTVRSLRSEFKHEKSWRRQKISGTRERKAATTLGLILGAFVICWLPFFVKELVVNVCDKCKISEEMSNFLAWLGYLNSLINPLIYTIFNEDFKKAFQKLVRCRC

[1] = target: T4, human 5-HT2C(vgv) receptor (Homo sapiens, UniProt P28335, I156V/I160V/N158G); test: R-SAT assay 5-HT2C; type: cell-based; details: Table 3, 5-HT2C; for EC50: negative logarithm of EC50 in molar; for Eff (%): percent response of reference 5-CT
T4 construct: expressed in transfected cells; host or cells: NIH/3T3
T4 sequence (P28335 33-458 I156V/N158G/I160V): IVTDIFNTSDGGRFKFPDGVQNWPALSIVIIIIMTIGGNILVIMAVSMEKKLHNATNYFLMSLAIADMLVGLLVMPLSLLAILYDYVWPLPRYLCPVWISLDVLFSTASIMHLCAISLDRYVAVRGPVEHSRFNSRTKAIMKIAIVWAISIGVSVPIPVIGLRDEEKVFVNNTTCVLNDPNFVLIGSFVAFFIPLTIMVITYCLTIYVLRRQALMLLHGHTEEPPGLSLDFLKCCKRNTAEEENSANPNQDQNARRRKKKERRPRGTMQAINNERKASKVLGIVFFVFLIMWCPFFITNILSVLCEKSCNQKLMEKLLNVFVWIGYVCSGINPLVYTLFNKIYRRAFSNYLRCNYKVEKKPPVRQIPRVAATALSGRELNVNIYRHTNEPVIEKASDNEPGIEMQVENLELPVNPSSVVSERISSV

human alpha1B receptor = target: T5, human alpha1B receptor (Homo sapiens, UniProt P35368); test: R-SAT assay α1B; type: cell-based; details: Table 3, α1B; percent response of reference Phenylephrine
T5 construct: expressed in transfected cells; host or cells: NIH/3T3 cells, transient transfection, pSI vector
T5 sequence (P35368 1-520): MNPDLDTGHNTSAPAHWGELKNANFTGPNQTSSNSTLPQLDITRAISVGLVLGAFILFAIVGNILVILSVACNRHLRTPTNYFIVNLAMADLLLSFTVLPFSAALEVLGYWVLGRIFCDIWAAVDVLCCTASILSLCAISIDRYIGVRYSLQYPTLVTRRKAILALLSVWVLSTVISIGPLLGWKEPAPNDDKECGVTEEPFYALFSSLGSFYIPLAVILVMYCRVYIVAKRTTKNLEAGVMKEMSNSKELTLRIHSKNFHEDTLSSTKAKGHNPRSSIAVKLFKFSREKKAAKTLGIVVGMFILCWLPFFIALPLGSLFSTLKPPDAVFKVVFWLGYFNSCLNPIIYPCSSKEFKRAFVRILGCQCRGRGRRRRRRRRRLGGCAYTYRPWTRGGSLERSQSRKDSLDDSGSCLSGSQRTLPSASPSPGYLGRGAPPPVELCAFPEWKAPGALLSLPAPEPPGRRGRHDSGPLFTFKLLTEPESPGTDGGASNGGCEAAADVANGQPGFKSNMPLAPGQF

human alpha2A receptor = target: T6, human alpha2A receptor (Homo sapiens, UniProt P08913); test: R-SAT assay α2A; type: cell-based; details: Table 3, α2A; percent response of reference UK 14,306
T6 construct: expressed in transfected cells; host or cells: NIH/3T3 cells, transient transfection, pSI vector
T6 sequence (P08913 whole entry): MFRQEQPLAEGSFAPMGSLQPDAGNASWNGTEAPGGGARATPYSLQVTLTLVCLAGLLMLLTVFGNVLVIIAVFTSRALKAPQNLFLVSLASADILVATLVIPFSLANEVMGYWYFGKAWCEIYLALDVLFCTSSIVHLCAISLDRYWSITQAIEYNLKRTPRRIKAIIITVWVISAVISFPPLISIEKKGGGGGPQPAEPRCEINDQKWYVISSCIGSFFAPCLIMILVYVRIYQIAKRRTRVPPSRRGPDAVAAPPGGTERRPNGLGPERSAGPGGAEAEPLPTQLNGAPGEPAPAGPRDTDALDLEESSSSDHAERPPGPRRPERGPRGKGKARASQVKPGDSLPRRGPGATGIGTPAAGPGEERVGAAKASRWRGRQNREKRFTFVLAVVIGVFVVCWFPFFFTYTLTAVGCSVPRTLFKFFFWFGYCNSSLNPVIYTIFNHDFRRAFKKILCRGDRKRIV

human 5-HT2A receptors [2] = target: T7, human 5-HT2A receptors (Homo sapiens, UniProt P28223); test: Phosphatidyl inositol (PI) hydrolysis assay at 5-HT2A; type: cell-based; design: expressed in transfected cells; details: mean ± SEM; for EC50: negative logarithm of EC50 in molar (M), HEK 293T cells, read-out: PI Hydrolysis pEC50 (converted); for PI Hydrolysis Eff (%): percent response of reference ligand 5-HT
T7 sequence (P28223 whole entry): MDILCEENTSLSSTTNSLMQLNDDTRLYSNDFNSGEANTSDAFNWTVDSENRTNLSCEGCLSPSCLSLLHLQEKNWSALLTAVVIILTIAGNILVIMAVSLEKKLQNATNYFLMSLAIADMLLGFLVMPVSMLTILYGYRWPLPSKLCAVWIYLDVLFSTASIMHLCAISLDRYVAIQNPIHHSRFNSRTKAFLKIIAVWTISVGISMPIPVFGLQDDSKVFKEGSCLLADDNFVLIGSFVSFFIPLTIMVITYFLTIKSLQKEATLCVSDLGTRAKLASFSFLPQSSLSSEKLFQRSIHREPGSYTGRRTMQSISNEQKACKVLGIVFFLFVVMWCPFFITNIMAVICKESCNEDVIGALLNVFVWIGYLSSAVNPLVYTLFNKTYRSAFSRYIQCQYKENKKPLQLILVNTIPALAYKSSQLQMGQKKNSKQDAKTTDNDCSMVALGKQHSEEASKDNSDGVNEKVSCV
Procedure: After lysing the cells with 50 μl of 0.1M formic acid, 20 μl each cell lysate was mixed with 80 μl (1 mg) RNA Binding YSi-SPA beads (GE Healthcare, Chalfont St. Giles, UK) on PICO plates (PerkinElmer) and counted on a TopCount (Packard).
Each curve is representative of at least three or more independent experiments.

D2 receptors = D2 receptors (Homo sapiens, UniProt P14416); test: GTPγS binding assay at D2; type: biochemical; design: expressed in transfected cells
D2 receptors, sequence (P14416 1-414 isoform P14416-2): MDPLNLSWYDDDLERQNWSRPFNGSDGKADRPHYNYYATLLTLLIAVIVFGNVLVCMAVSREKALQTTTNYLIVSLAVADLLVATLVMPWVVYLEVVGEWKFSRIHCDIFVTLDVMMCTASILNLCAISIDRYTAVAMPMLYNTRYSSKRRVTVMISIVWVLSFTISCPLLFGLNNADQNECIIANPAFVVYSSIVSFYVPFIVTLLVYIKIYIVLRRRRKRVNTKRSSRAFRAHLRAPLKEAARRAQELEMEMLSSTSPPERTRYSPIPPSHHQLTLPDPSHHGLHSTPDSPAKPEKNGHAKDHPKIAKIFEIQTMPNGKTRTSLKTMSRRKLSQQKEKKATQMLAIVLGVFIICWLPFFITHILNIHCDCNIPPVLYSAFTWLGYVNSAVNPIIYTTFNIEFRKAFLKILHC
Procedure: (§1) Cells were not centrifuged following cell scraping, but were collected directly into the ice-cold nitrogen cavitation chamber.
50 μl/well Wheat-Germ Agglutinin SPA beads (Perkin Elmer, Shelton, Conn.) were added to the plates and the plates incubated for 1 hour. The plates were then centrifuged at 1,000×g for 10 minutes and read on a Top Count NXT (Perkin Elmer, Shelton, Conn.).
To relate the results observed in R-SAT™ to a more conventional assay system, these ligands were also tested for the ability to induce GTPγS binding through D2 receptors.

[3] = target: human dopamine transporter (DAT) (Homo sapiens, UniProt Q01959); test: Equilibrium radioligand binding to DAT; details: displacement of 125I-RTI-55
human dopamine transporter (DAT), sequence (Q01959 whole entry): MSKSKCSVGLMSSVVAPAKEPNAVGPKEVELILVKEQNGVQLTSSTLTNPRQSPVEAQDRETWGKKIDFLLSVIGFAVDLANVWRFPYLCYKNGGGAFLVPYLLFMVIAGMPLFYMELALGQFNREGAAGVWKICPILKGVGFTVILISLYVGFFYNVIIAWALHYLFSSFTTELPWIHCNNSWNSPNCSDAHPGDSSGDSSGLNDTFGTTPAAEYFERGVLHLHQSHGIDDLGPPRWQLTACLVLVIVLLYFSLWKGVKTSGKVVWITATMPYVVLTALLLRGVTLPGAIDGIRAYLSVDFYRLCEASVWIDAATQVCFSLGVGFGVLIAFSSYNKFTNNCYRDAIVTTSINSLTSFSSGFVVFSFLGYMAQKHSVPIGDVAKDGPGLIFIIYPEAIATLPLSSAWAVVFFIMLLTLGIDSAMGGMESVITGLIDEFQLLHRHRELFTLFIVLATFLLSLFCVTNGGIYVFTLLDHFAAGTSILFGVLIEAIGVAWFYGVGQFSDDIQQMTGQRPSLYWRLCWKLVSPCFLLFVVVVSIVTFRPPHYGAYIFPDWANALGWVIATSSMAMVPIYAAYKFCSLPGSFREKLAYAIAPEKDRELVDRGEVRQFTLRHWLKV
Procedure: as §1
Membranes were prepared as described above. […] Binding reactions were terminated by filtration through UniFilter-96GF/B filters (from Perkin-Elmer, presoaked with 0.1% polyethylenimine for 1 h) with a Brandel 96-well harvester. Filters were washed with ice-cold wash buffer (50 mM Tris, 120 mM NaCl, pH7.4; 500 ml/plate) and then allowed to air-dry for 30 min. 50 μl MacrosScint-20 scintillation cocktail was added to each well, the plates were sealed, and then counted on a Top-Count (Packard).

human 5-HT2A receptors [4] = target: T7, human 5-HT2A receptors; test: R-SAT functional assay at 5-HT2A; type: cell-based; design: expressed in transfected cells; host or cells: NIH-3T3; details: for R-SAT Eff(%): percent response of reference ligand 5-CT; for Eff (%): percent response of reference 5-CT; for potency at 5-HT2A receptors compared with D2 receptors: comparison of Table 1 and Table 2
habituated rats = test: Locomotion in habituated rats, photocell activity boxes; details: 5-35 minutes after injection; for locomotion in habituated rats: 6.25, 12.5, 50, 100, 200 and 400 μmol/kg sc, vs Control; for locomotion, accumulated unrepeated beam breaks, means±SEM of pooled groups: habituated rats, 50 μmol/kg sc, 30 minutes period, controls 23±6
Procedure: Motor activity experiments in both active and habituated rats were performed on male Sprague-Dawley rats (Charles River, Germany) weighing 280-320 g. Prior to testing, rats were housed in groups of four or five in ventilated Macrolon type IV cages for approximately one week.
Rats were housed in a normal daylight cycle and the experiments were carried out during daytime. […] During the following 5 minutes test drugs were injected, after which the rats were returned to the boxes for another 60 minutes. Five by five rows of photocell beams at floor level allowed a computer based-system to register horizontal activity. Motor activity is presented as accumulated number of unrepeated beam breaks, i.e. several consecutive breakings of one beam is counted as one beam break. The software was set to register behavior from the rats' first introduction into the arena until it was finally removed from the box, i.e. for 110 or 130 minutes.
Locomotion was measured as accumulated unrepeated beam breaks. […] This was followed by 60 minutes of registration. Data are calculated from a 30 minutes period, 5-35 minutes after injection, and plotted as means and SEM. […] Data were calculated from a 30 minutes period, 5-35 minutes after injection.
The effect of haloperidol on the locomotor stimulation was also studied in habituated rats (see FIG. 10). Locomotion was measured as accumulated unrepeated beam breaks. Rats were given haloperidol (0.05, 0.2, 0.5 mg/kg, sc) and were then allowed to habituate for 65 minutes. […] Data are calculated from a 30 minutes period, taken 5-35 minutes after injection, and plotted as means and SEM. N=4-5.

[5] = Table 1, negative logarithm of EC50 in molar (M), NIH3T3 cells, mean ± SEM, read-out: R-SAT pEC50 (converted)
[6] = Table 3, 5-HT2A, negative logarithm of EC50 in molar, read-out: pEC50 (converted)

T1 sequence (P28221 whole entry): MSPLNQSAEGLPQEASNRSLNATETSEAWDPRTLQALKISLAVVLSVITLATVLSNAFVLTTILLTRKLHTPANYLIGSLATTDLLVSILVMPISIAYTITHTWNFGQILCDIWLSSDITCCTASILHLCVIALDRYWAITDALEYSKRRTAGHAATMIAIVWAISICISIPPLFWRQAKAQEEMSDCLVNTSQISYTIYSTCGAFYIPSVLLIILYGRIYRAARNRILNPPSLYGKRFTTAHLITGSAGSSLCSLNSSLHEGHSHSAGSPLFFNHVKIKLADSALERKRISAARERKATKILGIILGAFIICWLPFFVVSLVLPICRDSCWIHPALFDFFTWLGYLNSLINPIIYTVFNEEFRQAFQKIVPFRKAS

Compound	Eff (%) (human 5-HT1D receptor)	Eff (%) (human 5-HT1E receptor)	Eff (%) (human 5-HT1F receptor)	EC50 [1]	Eff (%) [1]	Eff (%) (human alpha1B receptor)	Eff (%) (human alpha2A receptor)	EC50 (human 5-HT2A receptors [2])	PI Hydrolysis Eff (%) (human 5-HT2A receptors [2])	Inh % [3]	EC50 (human 5-HT2A receptors [4]; [5])	R-SAT Eff(%) (human 5-HT2A receptors [4]; Table 1, mean ± SEM)	EC50 (human 5-HT2A receptors [4]; [6])	Eff (%) (human 5-HT2A receptors [4]; Table 3, 5-HT2A)	potency at 5-HT2A receptors compared with D2 receptors (human 5-HT2A receptors [4])	locomotion in habituated rats (habituated rats)	locomotion, accumulated unrepeated beam breaks, means±SEM of pooled groups (habituated rats)	further results
CCCN1CCC[C@@H](c2cccc(S(C)(=O)=O)c2)C1 [(−)-OSU6162, (3S)-3-[3-(methylsulfonyl)phenyl]-1-propylpiperidine]	132%	5%	30%	7940 nM	68%	−1%	2%	1.26e-06 M	65 ± 4%	6%	6.31e-07 M	113 ± 18%	6.31e-07 M	113%	equipotent at D2 and 5-HT2A receptors	significant locomotor stimulation was observed for all doses but the lowest	129±11 unrepeated beam breaks	EC50 (human 5-HT1D receptor; negative logarithm of EC50 in molar): 5010 nM; EC50 (D2 receptors; negative logarithm of EC50 in molar, HEK293T membranes, mean ± SEM, read-out: GTPγS pEC50 (converted)): 501 nM; GTPγS Eff % (D2 receptors; percent response of reference ligand dopamine, mean ± SEM): 37 ± 9%
CCCN1CCC[C@H](c2cccc(S(C)(=O)=O)c2)C1 [(+)-OSU6162, (3R)-3-[3-(methylsulfonyl)phenyl]-1-propylpiperidine]	28%	5%	22%	31600 nM	84%	10%	5%	2e-06 M	82 ± 4%	5%	1.58e-06 M	139 ± 14%	1.58e-06 M	139%	more potent at 5-HT2A than D2 receptors	significant locomotor stimulation was observed for all doses but the two lowest	95±12 unrepeated beam breaks	Emax at 50 µM (D2 receptors; read-out: GTPγS Eff %, response at 50 μM): 36%

Reference: patent publication US20130197032A1, “[…] COMPOUNDS FOR THE TREATMENT OF NEUROLOGICAL AND […] DISORDERS” (A. CARLSSON RESEARCH AB, priority 2010, published 2013)
